According to US12201613B2 (priority 2020, dated 2025):

Experiments:
[1] = test system: SARS-CoV-2 (SARS-CoV-2/human/TWN/CGMH-CGU-01/2020); type: cell-based
[2] = test system: lysozyme-coated Pd-NTF electrodes; assay: Binding selectivity of S-protein to lysozyme-coated Pd-NTF electrode (EIS); conditions: presence of peptide analogue
Text: (iii) lysozyme-coated Pd-electrode in the absence of peptide analogues; or […]

[3] = biological target: T1, SARS-CoV-2 S-protein-ACE2 binding (Homo sapiens, UniProt Q9BYF1, K631R); assay: EIS-based biosensing platform (ACE2-Pd-NTFE): modulation of S-protein-ACE2 binding; set-up: species or system SARS-CoV-2; human; conditions: for suppression of S-protein-ACE2 interaction / maximum binding efficacy / ECmax S-protein (S-protein-ACE2 interaction at maximum S-protein concentration): 4 μg/mL ACEi; for suppression of S-protein-ACE2 interaction / maximum binding efficacy: at maximum S-protein concentration; for ECmax S-protein (S-protein-ACE2 interaction at maximum S-protein concentration): baseline 99.5%±11.0% (104.2%±4.8% for ramiprilat); for modulation effect on the S-protein-ACE2 binding: dose-dependent, 0.1 to 4 μg/mL
T1 construct: made in house

[4] = Binding selectivity of S-protein to plain Pd-NTF electrode (EIS); conditions: presence of peptide analogue

SMILES	E gene RNA in the media increased by [1] [%]	effect on binding patterns of S-protein to the lysozyme-coated Pd-NTF electrode [2]	E gene RNA copies in the culture media reduced by [1]	suppression of S-protein-ACE2 interaction / maximum binding efficacy [3]	ECmax S-protein (S-protein-ACE2 interaction at maximum S-protein concentration) [3] [%]	modulation effect on the S-protein-ACE2 binding [3]	effect on binding patterns of S-protein to the bare Pd-NTF electrode [4]	effect on S-protein-ACE2 binding at highest dose ([3]; 4 μg/mL)
C[C@H](CS)C(=O)N1CCC[C@H]1C(=O)O [captopril]	34.5	–	–	–	–	–	–	–
CCOC(=O)[C@H](CCc1ccccc1)N[C@@H](C)C(=O)N1CCC[C@H]1C(=O)O [enalapril]	93.7	–	–	–	–	–	–	–
C[C@H](N[C@@H](CCc1ccccc1)C(=O)O)C(=O)N1CCC[C@H]1C(=O)O [enalaprilat]	44.4	–	–	–	–	–	–	–
NCCCC[C@H](N[C@@H](CCc1ccccc1)C(=O)O)C(=O)N1CCC[C@H]1C(=O)O [lisinopril]	54.2	did not change the binding patterns	–	–	–	–	–	–
CCC[C@H](N[C@@H](C)C(=O)N1[C@H](C(=O)O)C[C@@H]2CCCC[C@@H]21)C(=O)OCC [perindopril]	–	–	approximately 18.8%	approximately 48%	51.9±5.3	dose-dependent and non-competitive inhibition	–	–
CCC[C@H](N[C@@H](C)C(=O)N1[C@H](C(=O)O)C[C@@H]2CCCC[C@@H]21)C(=O)O [perindoprilat]	–	did not change the binding patterns	~20.1%	67%	33.0±3.7	antagonism effect is significantly enhanced	did not change the binding patterns	–
CCOC(=O)[C@H](CCc1ccccc1)N[C@@H](C)C(=O)N1[C@H](C(=O)O)C[C@@H]2CCC[C@@H]21 [ramipril]	–	–	39.3%	approximately 42%	57.1±11.4	dose-dependent and non-competitive inhibition	–	–
C[C@H](N[C@@H](CCc1ccccc1)C(=O)O)C(=O)N1[C@H](C(=O)O)C[C@@H]2CCC[C@@H]21 [ramiprilat]	–	–	36.4%	72%	27.6±7.5	antagonism effect is significantly enhanced	–	Near full inhibition
